PubChem BioAssay AID179 (DTP/NCI, 2004)
Values joined by “and” are separate entries in the source; they are usually repeats but may differ in a detail not shown here. Equal entries are not always repeated. Active and inactive are the calls of the source.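 How the source made its calls: active means compounds giving half or more protection of infected cells from virus-caused growth loss, again on retest; inactive means the rest.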 Where a SMILES comes first, the peptide text is derived from it. The star is where a group is joined. Boc = CC(C)(C)OC(=O)*; OBn = c1ccc(CO*)cc1

Test system: CEM cells HIV-1 protection, formazan growth assay
Test: NCI AIDS Antiviral Assay
Details: for IC50: measured here: growth of uninfected CEM cells
Summary of the method: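 Protection of CEM cells against HIV-1 was scored from cell growth (soluble formazan) across five concentrations, with parallel uninfected cells. Lack of protection may reflect toxicity.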

Structure (SMILES)	EC50 [µM]	IC50	outcome
Cc1cc2nc3nc(N)nc(NS(=O)(=O)c4cc(C)c(Cl)cc4S)n3c2cc1C	102	380 µM	
N#C[C@H](C(=O)c1ccccc1F)c1nc2ccccc2[nH]1	170	> 200 µM	
CN(C)CCNc1ncnc2nc(-c3ccccc3)c(-c3ccccc3)nc12	> 200	112 µM	
COc1ccc(C(=O)C2COC(=O)C2=O)cc1OC (stereo not drawn)	> 200	> 200 µM	
CC(=O)COP(=O)(OCC(C)=O)OCC1OC(n2cc(C)c(=O)[nH]c2=O)CC1N=[N+]=[N-] (stereo not drawn)	0.000631	2 µM	
CCCCc1ccc(Nc2nc3c(ncn3COCCO)c(=O)[nH]2)cc1	> 200	> 200 µM	
CC1(C)CCCCC1/C=C/C(CC(O)(C(F)(F)F)C(F)(F)F)=N\Nc1ccc([N+](=O)[O-])cc1[N+](=O)[O-] (stereo not drawn)	> 2	0.468 µM	
Nc1nn2cc3c(nc2c1N=Nc1ccccc1)-c1ccccc1CC3	> 200	> 200 µM	
Cc1cc2oc(=O)cc(C)c2c(=O)o1	> 200	> 200 µM	
CCCCCCC1CCC2CCCC(C)N12 (stereo not drawn)	> 162	> 162 µM	
Cc1ccc(C2C(Cl)C(=O)N2n2cnc3ccccc3c2=O)cc1 (stereo not drawn)	> 39.8	> 39.8 µM	
C=C(C)[C@H]1CC[C@@]2(C)C(C1)[C@H](C)CC[C@@H]2O (stereo partly drawn)			inactive
CCOC(=O)C(Cl)(Cl)/S(=N\S(=O)(=O)c1ccccc1)NC(=O)c1ccccc1 (stereo not drawn)	> 200	> 200 µM	
O=c1[nH]c(=O)n(C2CC(O)C(CO)O2)cc1S (stereo not drawn)			inactive
O=C(O)c1ccccc1/C=C1/Cc2ccc3c(c2C1=O)CCC3			inactive
O=C(O)c1cc(O)cc(O)c1N=Nc1ccc(/C=C/c2ccc(N=Nc3c(O)cc(O)cc3C(=O)O)cc2S(=O)(=O)O)c(S(=O)(=O)O)c1	0.813	91.2 µM	
COc1cc2c(cc1OCc1ccccc1)NC(=O)[C@@H]1CCCN1C2=O	> 200	> 200 µM	
CCOC(=O)C(NC(C)=O)[CH](c1ccccc1)[Sn]([Cl])([c]1ccccc1)[c]1ccccc1 (stereo not drawn)	> 200	91.2 µM	
Cc1[nH]c2ccccc2c1C1Cc2ccccc2N1C(=O)/C(Cl)=C/c1ccccc1 (stereo not drawn)	> 6.61	> 6.61 µM	
CC(NCc1c(O)ccc2c(-c3ccccc3)cc(=O)oc12)C(=O)O (stereo not drawn)	> 200	> 200 µM	
O=C(O)C1C2c3ccccc3C(c3ccccc32)C1C(=O)O (stereo not drawn)	> 851	> 851 µM	
CCC[CH2][Sn]1([CH2]CCC)[O]C(=O)C2C(C=C(C)C)C=C(C)C(C)C2C(=O)[O]1 (stereo not drawn)	> 2	0.0871 µM	

Structure (SMILES)	EC50 [µM]	IC50	outcome
CC(=O)NC(C)(C)C1CCC(C)CC1 (stereo not drawn)	> 200	> 200 µM	
CCOP(=O)(CN1CCNCCN(CP(=O)(OCC)OCC)CC1)OCC	> 100	> 100 µM	
O=C1OC(c2ccc3c(c2)OCO3)Sc2ccccc21 (stereo not drawn)	> 18.2	> 18.2 µM	
CN(C(=O)C12C3(C(=O)C(C)(C)C)C4C5(C#N)C3C1(C(=O)C(C)(C)C)C5C42C(=O)C(C)(C)C)C(C)(C)C (stereo not drawn)	> 52.5	> 52.5 µM	
COC(=O)C1(C)C=CC(=O)C2(C)C1C(O)C1OC3CC(c4ccoc4)C(C)=C3C1(C)C2CC(=O)O (stereo not drawn)	> 490	> 490 µM	
O=S(=O)(O)C(O)CCC(O)S(=O)(=O)O (stereo not drawn)	> 200	40.7 µM	
O=C(/C(N=Nc1ccccc1)=C(\O)c1ccccc1)c1ccccc1	> 21.9	> 21.9 µM	
O=C1NC(=O)C(Cc2ccccc2)(Cc2ccccc2)S1	> 17.4	> 17.4 µM	
O=C(CCCN1CCC(C(O)c2ccc(F)cc2)CC1)c1ccc(F)cc1 (stereo not drawn)	> 95.5	79.4 µM	
C=CC[P+](c1ccccc1)(c1ccccc1)c1ccccc1	> 20	0.562 µM and 0.427 µM	
O=C(CCCNc1nc(-c2ccccc2)cs1)c1cccs1	> 50.1	> 50.1 µM	
COc1ccc(C23OCCN2C(=O)c2ccccc23)cc1 (stereo not drawn)	> 200	19.1 µM	
O=Cc1c(O)c(C(=O)Nc2ccc3[nH]c(=O)[nH]c3c2)cc2ccccc12	> 38.9	> 38.9 µM	
CC1=Nc2nc(Cl)cn2C(=O)C1(Cl)Cl	> 200	33.1 µM	
CC(C)(C)c1cc(/C=C\C(=O)c2ccc([N+](=O)[O-])cc2)cc(C(C)(C)C)c1O	> 10	> 10 µM	
N#Cc1c2ccccc2cn1-c1ccc(F)cc1	> 200	79.4 µM	
CCOC(=O)c1[nH]c(Br)c(-c2ccc(OC)c(OC)c2)c1Br	> 200	0.0631 µM	
O=[N+]([O-])C(=C1c2ccccc2-c2ccccc21)[N+](=O)[O-]	> 135	18.2 µM	
[O-][N+](=Nc1ccccc1CO)c1ccccc1CO	110	> 200 µM	
CC1(O)C(=O)N(Cc2ccccc2)c2ccccc21 (stereo not drawn)	> 141	> 141 µM	
CC(Oc1cc2oc(=O)cc(-c3ccccc3)c2cc1Cl)C(=O)O (stereo not drawn)			inactive
N#CC1(C#N)NC(c2cccnc2)C(C#N)(C#N)NC1c1cccnc1 (stereo not drawn)	> 200	> 200 µM	

Structure (SMILES)	EC50 [µM]	IC50	outcome
Clc1ccc(-c2c(C3=NCCN3)nnn2-c2ccc(Cl)cc2)cc1	> 138	115 µM	
CC1=CC(O)C(C(O)(C(F)(F)F)C(F)(F)F)C(C)(C)C1 (stereo not drawn)	> 200	178 µM	
C[C@@H](NC(=O)c1ccccc1SC(=O)NCCCCl)C(N)=O	3.39	49 µM	
CC(C)CC(NC(=O)OC(C)(C)C)C(=O)N1CCCC1C(=O)OCc1ccccc1 (stereo not drawn) (Boc-Leu-Pro-OBn; configuration not given here)	> 200	52.5 µM	
C=C1C2CC[C@H]3C45C=NC[C@](C)(CCC4)[C@H]5CCC3(C2)[C@H]1O			inactive
C=CCCCCCCCC(O)C1C[C@H](O)C(CCCCC)O1 (stereo partly drawn)			inactive
Cc1ccc(S(=O)(=O)N/N=C2\CC3C4C=CC3C2C4)cc1 (stereo not drawn)	> 200	> 200 µM	
CC(C)S(=O)(=O)ON1C(=O)c2ccc(N(C)C)cc2C1=O	> 83.2	> 83.2 µM	
O=C(O)c1c([N+](=O)[O-])cc(C(F)(F)F)cc1[N+](=O)[O-]			inactive
Cc1cc(=O)n(-c2ccccc2C)c(C)n1	> 1000	> 1000 µM	
CC(C)c1ccc(/C=C2\C=Cc3ccccc32)cc1	> 40.7	> 40.7 µM	
OC1C2[C@@H](O)CCN2CC[C@H]1O (stereo partly drawn)	> 759	> 759 µM	
CC(=O)OCc1cncn1S(=O)(=O)c1ccc(C)cc1	> 200	22.9 µM	
O=c1[nH]c(=O)n(Cc2ccccc2)cc1B(O)O	> 200	> 200 µM	
O=C1CCC2(CC1CCS(=O)c1ccccc1)OCCO2 (stereo not drawn)	> 200	> 200 µM	
CC1=NC(C(=O)O)Cc2c1[nH]c1ccccc21 (stereo not drawn)			inactive
COc1ccc([C@H]2C=[N+]([O-])O[C@H](OC3CCCC3)[C@@H]2OC(C)=O)cc1OC	> 200	11.2 µM	
CC(=O)NC1CCC(NC(=O)OC(C)(C)C)C(NC(=O)OC(C)(C)C)C1 (stereo not drawn)	> 200	> 200 µM	
C=C(C)CN(CC(=C)C)C(=N)OCC1CCCO1 (stereo not drawn)	> 200	> 200 µM	
CCOC(=O)C1(C#N)C(C#N)(C#N)C1(C#N)C#N	> 200	> 200 µM	
CCCCCC#CC1OC12CCCCC2 (stereo not drawn)	> 126	> 126 µM	
CCc1cc(Cc2ccc(C)c(NC(=O)C(=O)C3C(=O)NC(=O)NC3=O)c2CC)cc(C)c1NC(=O)C(=O)C1C(=O)NC(=O)NC1=O	> 77.6	> 77.6 µM	

Structure (SMILES)	EC50 [µM]	IC50	outcome
NC(=O)CCNC(=O)c1ccccc1SC(=O)NCCBr	1.38	10 µM	
COC[C@H]1C(=O)NCC(=O)N2N=CCC[C@H]2C(=O)N(O)[C@H](C)C(=O)O[C@@H](C(C)C)[C@H](NC(=O)[C@@](C)(O)[C@]2(O)CC[C@@H](CC(C)C)[C@H](C)O2)C(=O)N2NCCC[C@@H]2C(=O)N1O	> 0.151	0.0417 µM	
CC(=O)NNc1nc(C)c(C(=O)NNC(=O)C(=O)Nc2c([N+](=O)[O-])ccc(C)c2C)s1	> 209	107 µM	
N=c1c2ccccc2nc2oc3ccc(Cl)cc3n12	> 200	102 µM	
Cc1ccc2n(c1)cc(-c1ccc(/C=N/NC(=N)N/N=C/c3ccc(-c4cn5cc(C)ccc5[n+]4C)cc3)cc1)[n+]2C	15.5	49 µM	
CC(=O)C1=C(O)C2C3c4c[nH]c5cccc(c45)CC3C(C)(C)N2C1=O (stereo not drawn)			inactive
CSc1c(C(=O)Nc2ccc(C)cc2)c(N)n(N)c(=O)c1C#N	100	151 µM	
CC(C)=CC(=O)N1CC(C)Cn2c(=S)[nH]c3cccc1c32 (stereo not drawn)	> 200	> 200 µM	
O=C(Nc1nc(C23CC4CC(CC(C4)C2)C3)cs1)c1c(O)c2ccccc2[nH]c1=O	> 200	> 200 µM	
Cc1ccc(C2OC(=O)c3c2ccc2ccccc32)cc1 (stereo not drawn)	> 35.5	> 35.5 µM	
O=[N+]([O-])c1ccc(N/N=C2\C=CCCC2)c([N+](=O)[O-])c1	> 200	> 200 µM	
COc1ccc(CCNC(=S)/N=C/C2=C(O)CC(C)(C)CC2=O)cc1OC	> 200	> 200 µM	
CCC1OC2C(CC=C(C)C)=C3OC(C)(O)C(C)(CC)C(OC(=O)c4ccccc4)C3=C3OC(=O)C=C1C32 (stereo not drawn)	> 200	18.6 µM	
Nc1nc2c(ccc3ccccc32)[nH]1			inactive
Cc1csc2c1-n1cccc1C2=O	> 200	129 µM	
C[C@@]1(C(=O)O)CCC[C@@]2(C)C1[C@H](OC(=O)c1ccccc1)CC1CC3CC12CC[C@@]3(C)O (stereo partly drawn)	> 282	58.9 µM	
COC(=O)[C@@H](CO)NC(=O)OC(C)(C)C	> 200	> 200 µM	
CN(C)c1nc(Cl)c2c(-c3ccccc3)c(-c3ccccc3)oc2n1			inactive
Oc1ccc(C[C@@H]2CN[C@H](Cc3ccc(O)c(Br)c3)CN2)cc1	> 200	> 200 µM	
Cc1ccc(S(=O)(=O)SCCCSS(=O)(=O)c2ccc(C)cc2)cc1	> 89.1	15.5 µM	
C=C(C)C(C(=O)OC(c1ccccc1)c1ccccc1)N1C(=O)C(NC(=O)COc2ccccc2)C1SSC(C)(C)C (stereo not drawn)	> 200	72.4 µM	
